Data on 19 molecules can be found in patent US8492371B2, “Compounds as cannabinoid receptor ligands” (priority 2009, dated 2013).

The target of one assay is T1, human CB2 receptors (Homo sapiens, UniProt P34972).
T1 construct: expressed in transfected cells; host or cells: HEK293
Kind of assay: Human CB2 radioligand binding assay ([3H]CP-55,940 competition). The protocol:
The CB1 and CB2 radioligand binding assays described herein are utilized to determine the selectivity of compounds of the present invention for binding to CB2 relative to CB1 receptors.
(§1) HEK293 cells stably expressing human CB2 receptors were grown until a confluent monolayer was formed. Briefly, the cells were harvested and homogenized in TE buffer (50 mM Tris-HCl, 1 mM MgCl2, and 1 mM EDTA) using a polytron for 2×10 second bursts in the presence of protease inhibitors, followed by centrifugation at 45,000×g for 20 minutes. The final membrane pellet was re-homogenized in storage buffer (50 mM Tris-HCl, 1 mM MgCl2, and 1 mM EDTA and 10% sucrose) and frozen at −78° C. until used. Saturation binding reactions were initiated by the addition of membrane preparation (protein concentration of 5 μg/well for human CB2) into wells of a deep well plate containing ([^3H]CP-55,940 (120 Ci/mmol, a nonselective CB agonist commercially available from Tocris) in assay buffer (50 mM Tris, 2.5 mM EDTA, 5 mM MgCl2, and 0.5 mg/mL fatty acid free BSA, pH 7.4). After 90 min incubation at 30° C., binding reaction was terminated by the addition of 300 μL/well of cold assay buffer followed by rapid vacuum filtration through a UniFilter-96 GF/C filter plates (pre-soaked in 1 mg/mL BSA for 2 hours). The bound activity was counted in a TopCount using Microscint-20. Saturation experiments were conducted with twelve concentrations of [^3H]CP-55,940 ranging from 0.01 to 8 nM. Competition experiments were conducted with 0.5 nM [^3H]CP-55,940 and five concentrations of displacing ligands selected from the range of 0.01 nM to 10 μM. The addition of 10 μM unlabeled CP-55,940 (Tocris, Ellisville, Mo.) was used to assess nonspecific binding.

In another assay the target is T2, rat CB2 receptors (Rattus norvegicus, UniProt Q9QZN9).
T2 construct: expressed in transfected cells; host or cells: HEK293
T2 sequence (Q9QZN9 1-360): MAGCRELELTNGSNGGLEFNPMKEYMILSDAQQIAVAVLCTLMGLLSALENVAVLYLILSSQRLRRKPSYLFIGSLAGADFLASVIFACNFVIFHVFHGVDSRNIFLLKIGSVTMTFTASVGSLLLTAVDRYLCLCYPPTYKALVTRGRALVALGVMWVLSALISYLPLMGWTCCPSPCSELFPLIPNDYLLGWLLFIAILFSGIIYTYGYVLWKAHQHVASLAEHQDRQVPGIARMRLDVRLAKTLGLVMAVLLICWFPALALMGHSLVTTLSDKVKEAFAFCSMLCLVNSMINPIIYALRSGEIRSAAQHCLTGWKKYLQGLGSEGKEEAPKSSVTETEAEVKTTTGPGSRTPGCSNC
Kind of assay: Rat CB2 radioligand binding assay ([3H]CP-55,940 competition). The protocol:
as §1, with “expressing rat” for “expressing human”, “of 20” for “of 5”, “for rat” for “for human”, “containing [^3H]CP-55,940” for “containing ([^3H]CP-55,940”, “After 45” for “After 90”, “[…]” for “10 μM.”

T1 sequence (P34972 whole entry): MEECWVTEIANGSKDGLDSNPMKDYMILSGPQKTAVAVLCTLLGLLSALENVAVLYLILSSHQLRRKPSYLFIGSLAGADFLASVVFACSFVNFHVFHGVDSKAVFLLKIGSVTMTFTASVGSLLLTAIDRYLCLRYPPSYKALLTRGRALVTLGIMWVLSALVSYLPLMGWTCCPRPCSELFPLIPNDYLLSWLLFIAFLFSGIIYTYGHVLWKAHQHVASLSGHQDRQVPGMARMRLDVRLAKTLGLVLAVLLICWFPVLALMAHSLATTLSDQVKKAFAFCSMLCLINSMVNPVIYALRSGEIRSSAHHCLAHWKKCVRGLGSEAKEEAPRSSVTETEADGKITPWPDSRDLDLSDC

Regarding `Cn1c(C(C)(C)C)c/c(=N\C(=O)c2cc([N+](=O)[O-])ccc2F)n1C[C@H]1CCCO1` [Example 129, N-{(3E)-5-tert-butyl-1-methyl-2-[(2R)-tetrahydrofuran-2-ylmethyl]-1,2-dihydro-3H-pyrazol-3-ylidene}-2-fluoro-5-nitrobenzamide], the Ki at human CB2 receptors came to 8.6 nM; at rat CB2 receptors, 2.3 nM.
In the case of `Cc1ccc(C(F)(F)F)cc1C(=O)/N=c1\cc(C(C)(C)C)n(C)n1C[C@H]1CCCO1` [Example 86], the Ki on human CB2 receptors was 11 nM; at rat CB2 receptors, 3.3 nM.
In the same order, the values of `Cn1c(C(C)(C)C)c/c(=N\C(=O)c2cc(C(F)(F)F)ccc2OCCF)n1C[C@H]1CCCO1` [Example 22, N-{(3E)-5-tert-butyl-1-methyl-2-[(2R)-tetrahydrofuran-2-ylmethyl]-1,2-dihydro-3H-pyrazol-3-ylidene}-2-(2-fluoroethoxy)-5-(trifluoromethyl)benzamide] are 24 nM and 10 nM.
In the same order, the values of `CC1CCC(NC(=O)/N=c2\sc(C(C)(C)C)nn2C[C@H]2CCCO2)CC1` (stereo partly drawn) [Example 67, N-[(2Z)-5-tert-butyl-3-[(2R)-tetrahydrofuran-2-ylmethyl]-1,3,4-thiadiazol-2(3 H)-ylidene]-N′-(4-methylcyclohexyl)urea] are 16 nM and 10 nM.
In the same order, the values of `Cn1c(C(C)(C)C)c/c(=N\C(=O)c2cc(C(F)(F)F)ccc2OC(C)(C)C)n1C[C@H]1CCCO1` [Example 25, 2-tert-butoxy-N-{(3E)-5-tert-butyl-1-methyl-2-[(2R)-tetrahydrofuran-2-ylmethyl]-1,2-dihydro-3H-pyrazol-3-ylidene}-5-(trifluoromethyl)benzamide] are 101 nM and 40 nM.
Regarding `COc1ccc(Cl)cc1C(=O)/N=c1\sc(C2(C(F)(F)F)CC2)nn1C[C@H]1CCCO1` [Example 1, 5-chloro-2-methoxy-N-[(2Z)-3-[(2R)-tetrahydrofuran-2-ylmethyl]-5-[1-(trifluoromethyl)cyclopropyl]-1,3,4-thiadiazol-2(3H)-ylidene]benzamide], the Ki was 51 nM at human CB2 receptors and 2.9 nM at rat CB2 receptors.
In the same order, the values of `COC(C)(C)CCOc1ccc(C(F)(F)F)cc1C(=O)/N=c1\cc(C(C)(C)C)n(C)n1C[C@H]1CCCO1` [Example 20, N-{(3E)-5-tert-butyl-1-methyl-2-[(2R)-tetrahydrofuran-2-ylmethyl]-1,2-dihydro-3H-pyrazol-3-ylidene}-2-(3-methoxy-3-methylbutoxy)-5-(trifluoromethyl)benzamide] are 25 nM and 23 nM.
In the same order, the values of `COc1ccc(C(F)(F)F)cc1C(=O)/N=c1\cc(C(C)(C)C)n(C)n1CC1CC[C@@H](C)O1` (mixture of isomers) [Example 64, N-((3E)-5-tert-butyl-1-methyl-2-{[(5R)-5-methyltetrahydrofuran-2-yl]methyl}-1,2-dihydro-3H-pyrazol-3-ylidene)-2-methoxy-5-(trifluoromethyl)benzamide] are 30 nM and 6.2 nM.
With `Cn1c(C(C)(C)C)c/c(=N\C(=O)c2cc(C(F)(F)F)ccc2CCC(C)(C)O)n1C[C@H]1CCCO1` [Example 101, N-{(3E)-5-tert-butyl-1-methyl-2-[(2R)-tetrahydrofuran-2-ylmethyl]-1,2-dihydro-3H-pyrazol-3-ylidene}-2-(3-hydroxy-3-methylbutyl)-5-(trifluoromethyl)benazmide], the values for the Ki on human CB2 receptors and on rat CB2 receptors were 49 nM and 34 nM, respectively.
In the same order, the values of `COc1ccc(C(F)(F)F)cc1C(=O)/N=c1\cc(C(C)(C)C)ccn1C[C@H]1CCCO1` [Example 62, N-[(2E)-4-tert-butyl-[(2R)-tetrahydrofuran-2-ylmethyl]pyridin-2(1H)-ylidene]-2-methoxy-5-(trifluoromethyl)benzamide] are 20 nM and 4 nM.
In the same order, the values of `COCc1ccc(C(F)(F)F)cc1C(=O)/N=c1\cc(C(C)(C)C)n(C)n1C[C@H]1CCCO1` [Example 110, N-{(3E)-5-tert-butyl-1-methyl-2-[(2R)-tetrahydrofuran-2-ylmethyl]-1,2-dihydro-3H-pyrazol-3-ylidene}-2-(methoxymethyl)-5-(trifluoromethyl)benzamide] are 12 nM and 3 nM.
In the same order, the values of `Cn1c(C(C)(C)C)c/c(=N\C(=O)c2cc(F)ccc2Cl)n1C[C@H]1CCCO1` [Example 50, N-{(3E)-5-tert-butyl-1-methyl-2-[(2R)-tetrahydrofuran-2-ylmethyl]-1,2-dihydro-3H-pyrazol-3-ylidene}-2-chloro-5-fluorobenzamide] are 63 nM and 54 nM.
Turning to `Cn1c(C(C)(C)C)c/c(=N\C(=O)c2cc(F)cc(C(F)(F)F)c2)n1C[C@H]1CCCO1` [Example 96, N-{(3E)-5-tert-butyl-1-methyl-2-[(2R)-tetrahydrofuran-2-ylmethyl]-1,2-dihydro-3H-pyrazol-3-ylidene}-3-fluoro-5-(trifluoromethyl)benzamide], the Ki at human CB2 receptors was determined as 13 nM; on rat CB2 receptors, 3.7 nM.
In the same order, the values of `COC(=O)c1cccc(C(=O)/N=c2\cc(C(C)(C)C)n(C)n2C[C@H]2CCCO2)c1` [Example 115] are 25 nM and 5.4 nM.
Turning to `COc1ccc(C(F)(F)F)cc1C(=O)/N=c1\cc(C(C)(C)C)n(C)n1CC1CCOC1` (centres unmarked) [Example 85, N-[(3E)-5-tert-butyl-1-methyl-2-(tetrahydrofuran-3-ylmethyl)-1,2-dihydro-3H-pyrazol-3-ylidene]-2-methoxy-5-(trifluoromethyl)benzamide], the Ki on human CB2 receptors was determined as 87 nM; on rat CB2 receptors, 13 nM.
`COCCCc1ccc(C(F)(F)F)cc1C(=O)/N=c1\cc(C(C)(C)C)n(C)n1C[C@H]1CCCO1` [Example 90, N-{(3E)-5-tert-butyl-1-methyl-2-[(2R)-tetrahydrofuran-2-ylmethyl]-1,2-dihydro-3H-pyrazol-3-ylidene}-2-(3-methoxypropyl)-5-(trifluoromethyl)benzamide]: the Ki is 3.5 nM at human CB2 receptors and 3 nM on rat CB2 receptors.
For the molecule `Cn1c(C(C)(C)C)c/c(=N\C(=O)c2cc(C(F)(F)F)ccc2OCCC2(O)CCCC2)n1C[C@H]1CCCO1` [Example 94, N-{(3E)-5-tert-butyl-1-methyl-2-[(2R)-tetrahydrofuran-2-ylmethyl]-1,2-dihydro-3H-pyrazol-3-ylidene}-2-[2-(1-hydroxycyclopentyl)ethoxy]-5-(trifluoromethyl)benzamide], the inhibition constant (Ki) on human CB2 receptors turned out to be 2.6 nM; on rat CB2 receptors it was 3.3 nM.
In the same order, the values of `COc1ccc(C(F)(F)F)cc1C(=O)/N=c1\cc(C(C)(C)C)n(C)n1C[C@H]1CCCO1` [Example 47, N-{(3E)-5-tert-butyl-1-methyl-2-[(2R)-tetrahydrofuran-2-ylmethyl]-1,2-dihydro-3H-pyrazol-3-ylidene}-2-methoxy-5-(trifluoromethyl)benzamide] are 17 nM and 3.7 nM.
In the same order, the values of `COc1ccc(Cl)cc1C(=O)/N=c1\sc(C(C)(C)C(F)(F)F)nn1C[C@H]1CCCO1` [Example 9, 5-chloro-2-methoxy-N-[(2Z)-3-[(2R)-tetrahydrofuran-2-ylmethyl]-5-(2,2,2-trifluoro-1,1-dimethylethyl)-1,3,4-thiadiazol-2(3H)-ylidene]benzamide] are 33 nM and 1.4 nM.

For orientation: Ki means a dissociation constant, usually derived from enzyme kinetics or from competition with a known ligand. A lower Ki goes with tighter binding.
